In patent US20240148745A1, “COMPOUNDS FOR USE IN PROGRESSIVE MULTIPLE SCLEROSIS” (FONDAZIONE CENTRO SAN RAFFAELE, priority 2021, published 2024):
Like-named read-outs stand apart in the source and are kept apart here.

How the values were obtained:
[1] = test system: iPSC-derived neurons (DIV45)
Procedure: This protocol was modified from Yuchen Qi et al.^32 First, neural progenitors (NPCs) were generated from hiPSCs by dual-SMAD inhibition. Shortly, at day 0 iPSC colonies (confluent at 70-80%) were washed with PBS Dulbecco's w/o Calcium w/o Magnesium (Euroclone) and hiPSCs' maintenance medium (mTeSR™, StemCell Technologies) was replaced with neural induction medium composed by DMEM/F12 plus N2 medium (1×), B27 without RA supplement (0.5×) (Life Technology), added with SB431542 (10 μM) and LDN (500 nM). This medium was kept until day 4 (“induction”). At day 4, cells were splitted (1:3) with the same induction medium using Accutase®/Accumax™ (StemCell Technologies) dissociated solution. Entire medium was replaced daily up to days 14-16 until rosette formation was observed (“patterning”). At days 14-16, cells were detached by Accutase®/Accumax™ and re-plated on polyornitine/laminin/fibronectin coated MW96 or MW24 plates for terminal differentiation in Neurobasal medium supplemented with B27 (0.5×), BDNF (20 ng/ml), dbcAMP (500 μM), ascorbic acid (200 μM), PD0325901 (1 μM), SU5402 (5 μM), CHIR (3 μM), human recombinant insulin (5 μg/ml), supplemented with RI (Rock inhibitor) (1:3000) to reduce dissociation induced apoptosis. The half of differentiation medium was changed every 3-4 days, supplemented with 1 μg/ml laminin and DAPT (1-2 μM) until terminal maturation of neuronal population (MAP2+ cells). Cultures were characterized by immunocytochemistry and qRT-PCR and neuroprotective experiments were performed on days 30-40 of differentiation.
Evaluation of cytotoxicity of 160 selected compounds on iPSC-derived neurons (DIV45).

[2] = test system: rat oligodendrocyte progenitor CG4 line; test: Differentiation assay on rat oligodendrocyte progenitor CG4 line (HCS, mCherry+); type: cell-based; settings: secondary screen of 49 selected compounds, 1 μM, 5 days
How it was run: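 Double-reporter CG4 cells (mCherry in mature oligodendrocytes, EGFP in all lineage stages) proliferated 24 h, then given compounds at 1 μM for 5 days of differentiation, ⅔ medium changed at day 3. 9cis-RA as positive control, basal medium and 0.1% DMSO as negative; triplicates imaged by HCS, 35 fields/well.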

[3] = test system: murine cortical neurons (14 DIV); test: NMDA-mediated neuroprotective assay (CCK8 viability); type: cell-based, mouse; settings: 1 μM, 3 h pre-treatment, NMDA 8 μM 24 h, p<0.05
Procedure: To assess neuroprotective activity of 160 selected non-toxic compounds on primary murine cortical neurons, obtained as described in the previous paragraph, ([…]), cultures were pre-treated with 1 μM compounds for either 3 or 24 hours, followed by 24 hours chronic stimulation with NMDA (8 μM) to induce neuronal damage. Each test plate included: a negative control (untreated), vehicle-treated control (0.02% vol/vol DMSO), a positive neurotoxic control—staurosporine 0.1 μM, a stressor—NMDA 8 μM, a positive neuroprotective control—NAC 300 μM, and a combination of stressor +neuroprotective molecule (NMDA+NAC). Cell viability was measured with Cell Counting Kit-8 assay compared to NMDA-treated control.
The potential neuroprotective activity of 160 selected non-toxic compounds was evaluated on murine cortical neurons (14 DIV) with either 3 h (FIG. 13) or 24 h compounds pre-treatment (FIG. 14). In assay with 3 h pre-treatment, 17 compounds were identified as potential NMDA-neuroprotective hits (marked with black asterisk in FIG. 13, stat. significant at p<0.05, Kruskal-Wallis test with post-hoc two-stage linear step-up procedure of Benjamini, Krieger and Yekutieli multiple comparison correction).

[4] = test system: rat primary OPC cultures; test: Differentiation of rat primary OPC into MBP+ OLs; type: cell-based; settings: 96 h, 4 days of differentiation, read-out: MBP+ differentiation (MBP+/SOX10+ OLs plus compounds / plus basal medium)
Procedure: Secondary validation on primary rat OPC differentiation. Re-validation of the best performing compounds promoting OPC differentiation (fold change >1.5) was performed on primary rat OPC cultures in 96 well-plate run in triplicates by triple immunolabeling for CNPase, MBP and SOX10 as a readout. Compounds at […] were added for 4 days of differentiation and then cell cultures were imaged with ArrayScanXTI platform, number of MBP+OLs were quantified by semi-automated software. Basal medium served as a negative control, 9 cis-RA ([…]) was a positive control.
Re-validation of the 49 compounds selected from the short list (160 compounds) using rat primary OPC cultures (compounds tested in triplicates in 3 independent experiments. The secondary validation screen of these compounds performed on rat primary OPC cultures selected 17 best lead compounds with a pro-differentiation activity (MBP+/SOX10+OLs plus compounds/MBP+SOX10+ plus basal medium fold increase) induced a strong differentiation into MBP+OLs (fold increase >1.6). Results are shown in FIG. 7.

[5] = test system: iPSC-derived glutamatergic neurons; test: ROS (tBuOOH)-mediated neuroprotective assay on hNeu; type: cell-based, human; settings: control line CTR4, 1 μM, p<0.05
Procedure: Neuroprotective experiments were performed using iPSC-derived glutamatergic neurons from 3 healthy controls cultured for 30-40 DIV. Cells were pre-treated for 24 h with […] of compounds, vehicle (DMSO) or 5 nM Mito-Q (mitoquinone) served as a positive control. On the next day cells were incubated for 2 h with 100 µM of tert-butyl peroxide (tBuOOH, Sigma), then the medium was replaced and the viability readout by CCK8 viability assay kit (Dojindo) was performed on the following day. The cell viability was expressed as normalized Z score and compared to tBuOOH-treated cells with nonparametric Kruskal-Wallis test with Dunn's multiple comparisons correction.
32 “Front runners” and 7 compounds from short list were tested on iPSC-derived neurons from three control lines in ROS-mediated assay to evaluate a neuroprotective potential of selected compounds. Three independent experiments were performed for CTR4 and CTR8, FIG. 20 (A, C), while two independent experiments were performed for CTR7, FIG. 20 (B).

[6] = test system: mouse cortical neurons; test: Morphological integrity evaluation, NMDA 8 μM (MAP2 neurite length and branching); type: cell-based; settings: 3 h pre-treatment, NMDA 8 μM 24 h; Z>0.5 criteria
Procedure: Apart of viability/metabolic readout in NMDA-mediated neurotoxicity assay, a neuronal structural integrity was evaluated by MAP2 staining. Mouse cortical neurons (14 DIV) cultured in MW96 plates were fixed with 4% paraformaldehyde (PFA). Fixed cells were incubated with blocking solution (PBS 1×, donkey serum 5%, Triton 0.1%) for 1-hour, primary antibody (rabbit α-MAP2, 1:250, Millipore) was applied in the same solution overnight at +4° C. […] Nuclei were stained with 4′-6-diamidino-2-phenylindole (DAPI, Roche). Microscopy was performed using ArrayScan™XTI (ThermoFisher) imaging platform. 15 images per well were acquired and analyzed by CellProfiler. Total neurite length and the total number of non-trunk branches were analyzed. Total neurite length and the total number of branching were evaluated from 15 images/well, each compound or control was tested in triplicates. The total neurite length and total number of branches were converted to a standardized Z-score using formula: Xij=((Xij−μ)/σ), where xij is the raw measurement of the compound located in well (i, j), and μ and σ are, respectively, the mean and the standard deviation of all measurements of the plate.^31
The morphological integrity of mouse cortical neurons upon chronic 24 h NMDA (8 μM) exposure with compounds pre-treatment (3 h) in preventive regimen was evaluated. Control (basal), DMSO, N-acetylcysteine (NAC) served as positive controls, while staurosporine and NMDA were negative controls.

| SMILES | viability compared to DMSO ([1]; human) | CG4 differentiation compared with 9cis-RA positive control [2] | also measured |
| --- | --- | --- | --- |
| Cc1c(Cc2ccc3ccccc3n2)c2cc(F)ccc2n1CC(=O)O [0C000459, TIMAPIPRANT] | 65-80% | promoting differentiation significantly higher than 9cis-RA positive control | neuroprotection of viability/metabolic activity against NMDA [3]: hit compounds; fold induction at 1 µM [4]: > 1.6 |
| Oc1ccc([C@H]2COc3cc(O)ccc3C2)cc1 [Equol] | – | promoting differentiation significantly higher than 9cis-RA positive control | protection from tBuOOH insult [5]: protected from tBuOOH insult |
| CCn1c(=O)c2c(nc(/C=C/c3ccc(OC)c(OC)c3)n2C)n(CC)c1=O [Istradefylline] | 65-80% | – | – |
| OC1CCC(Nc2nc(-c3ccccc3)nc3[nH]ccc23)CC1 (stereo not drawn) [Derenofylline] | 65-80% | – | – |
| CC[C@@H](Oc1cccc(CN(CCCOc2ccc(OC)cc2)c2nc3ccccc3o2)c1)C(=O)O [K-877 Pemafibrate] | – | – | viability compared to DMSO [1]: 65-80% |
| Cc1nc(C#Cc2ccnc(Cl)c2)c(C)n1-c1ccc(F)cc1 [Basimglurant] | 65-80% | – | preservation of neurite length and network integrity (branching) [6]: preserved both neurite length and the network integrity (branching) |
| CNCc1ccc(C)c(NC(=O)c2ccc(Nc3nc(-c4ccccc4)c4ccccc4n3)cc2)c1 [BMS-833923] | 65-80% | promoting differentiation significantly higher than 9cis-RA positive control | – |
| CC1(C)CC(C)(C)CC(C)(N)C1 [Neramexane] | – | promoting differentiation significantly higher than 9cis-RA positive control | preservation of neurite length and network integrity (branching) [6]: preserved both neurite length and the network integrity (branching); viability compared to DMSO [1]: 65-80%; neuroprotection of viability/metabolic activity against NMDA [3]: hit compounds |
| COc1cccc(OC)c1-c1cc(C(=O)NC2(C(=O)O)C3CC4CC(C3)CC2C4)nn1-c1ccnc2cc(Cl)ccc12 (stereo not drawn) [Reminertant] | 65-80% | – | – |
